# From patent US7632848B1, “Medical treatment of muscles by exposure to anesthetic drugs” (priority 2007, dated 2009)
# Columns and labels:
# [1] = tested on: skeletal muscle fibers; settings: in vivo; cited from earlier work
# [2] = tested on: eye muscle (lateral rectus muscle); assay type: in vivo, human
# From the text: In one embodiment, an eye muscle is selected for treatment. For an eye that is esotropic (turned inward or crossed), the physician will want to strengthen the lateral rectus muscle, which acts to pull the eye outward into better alignment. The surface of the eye is anesthetized with eye drops. A syringe is filled with up to 5.0 cc of bupivacaine, enough to fill the muscle and reach all the muscle fibers. The concentration of the bupivacaine solution is from 0.5% to 3.0%. The volume and concentration are varied depending on the amount of strengthening effect required. The syringe is attached to an injection needle insulated on its shaft. Therefore, the muscle electrical activity is picked up only with the exposed tip of the needle. The needle is attached to a wire leading to an electromyographic (EMG) recorder. A second wire leads to a ground attached to the skin of the patient's body. The eye is moved to a position at which the lateral rectus muscle to be treated is activated electrically as well as physically contracted. As the tip of the needle approaches the muscle area, the electrical activity is picked up and amplified by the EMG recorder as sound. The sound gets louder as the needle tip gets closer to and finally within the muscle. The needle is advanced behind the eye to the end of the muscle, about 3 cm, keeping the needle within the muscle, guided by the amplitude of the recorded sound. This is important, as the drug will anesthetize the nerves and the muscle with injection of the first few drops, thereafter leaving no guide as to position of the needle. The drug solution is injected starting at this deepest point, with continued injection of solution as the needle is withdrawn. In order to get the maximum effect, all the fibers of the muscle must be exposed to the drug. A smaller volume and concentration are applied when a sub-maximum effect is wanted. […] (Scott, A. B., Alexander, D. E., Miller, J. M., 2007, Bupivacaine injection of eye muscles to treat strabismus. Br J. Opthalmol. 91 (2), 146-148) In one case of eye muscle injection, I marked the solution with a contrast agent to show the exact location of the injected drug. […] All the same, the muscle became larger and stronger. This teaches that exposure of the fibers can also be effected by injecting around the muscle to bathe it. All the muscle fibers must be exposed to the drug to provide the maximal effect. Reducing exposure of the muscle fibers to the drug by reducing the volume of solution injected or by using a lower concentration of drug can be expected to provide a lesser effect. […]
# [3] = tested on: extensor digitorum longus muscle; settings: rat hind limb, sufficient concentration and volume; cited from earlier work
structure (smiles),measurement,setting,value
CCCCN1CCCCC1C(=O)Nc1c(C)cccc1C (stereo not drawn) [bupivacaine],toxicity to muscle fibers,[1],irreversible breakdown of the muscle fibers
same,duration of muscle inactivity from the anesthetic effect,"[2]; eye muscle injection, up to 5.0 cc, 0.5% to 3.0%",inactive for a day
same,eye position and movement after recovery,"[2]; eye muscle injection, as the muscle enlarges and strengthens",typically improve
same,recovery from the myotoxic effect,[2]; in vivo,gradually recovers from the myotoxic effect of the drug over the next week
same,effect on muscle size and strength,[2]; muscle fibers exposed to adequate concentration and volume of drug,enlarge and become stronger
same,muscle size after injection,[3],enlargement of the muscle beyond its original size
